Reference: US20230192704A1, “MONOCARBOXYLIC ACID TRANSPORTER 4 (MCT4) MODULATORS AND USES THEREOF” (Teon Therapeutics, Inc., priority 2020, published 2023)

How the values were obtained:
MCT4 = target: T1, MCT4 (Homo sapiens, UniProt O15427); test: MCT4 transport assay (L-lactate influx, BCECF-AM intracellular pH); assay type: cell-based; conditions: MDA-MB-231 cells expressing exclusively MCT4
T1 construct: MDA-MB-231 cells—a triple negative human breast cancer cell line expressing exclusively MCT4 (confirmed by Western blotting); host or cells: MDA-MB-231
T1 sequence (O15427 2-465 limits assumed): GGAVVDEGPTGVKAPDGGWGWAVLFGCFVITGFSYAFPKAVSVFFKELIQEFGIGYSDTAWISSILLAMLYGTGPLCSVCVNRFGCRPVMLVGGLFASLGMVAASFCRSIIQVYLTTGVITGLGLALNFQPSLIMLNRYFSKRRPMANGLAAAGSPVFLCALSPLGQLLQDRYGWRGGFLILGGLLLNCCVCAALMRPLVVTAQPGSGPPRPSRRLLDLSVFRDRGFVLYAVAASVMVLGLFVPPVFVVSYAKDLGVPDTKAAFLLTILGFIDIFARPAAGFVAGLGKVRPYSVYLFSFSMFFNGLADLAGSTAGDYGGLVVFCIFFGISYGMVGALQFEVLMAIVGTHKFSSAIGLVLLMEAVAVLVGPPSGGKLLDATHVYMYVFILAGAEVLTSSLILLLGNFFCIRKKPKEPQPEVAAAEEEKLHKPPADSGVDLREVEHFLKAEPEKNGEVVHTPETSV
Method: (§1) The compounds' efficacy in both assays was determined by calculating their IC50 value (the concentration of test compound that inhibited 50% of biological activity).
(§2) MCT4 is predominantly involved in cellular efflux of lactate from the cell, preventing intracellular acidification. In the MCT4 in vitro transport system described here it was possible to drive influx of lactate in the cells and test the compounds efficacy in preventing this process. MCT1 is involved in influx-efflux of lactate, and because it is closely related to MCT4, it is a major selectivity target for MCT4 inhibitor. The MCT1 in vitro transport system described here measured the influx of lactate in the cells and ability of test compounds in preventing this process.
(§3) Tyrode's Solution pH7.4 (NaCl 119 mM; KC1 5 mM; HEPES pH7.4 25 mM; CaCl2 2 mM; MgCl2 2 mM; Glucose 6 g/L)
(§4) The following assay was performed to assess MCT4 (MDA-MB-231 cell line) or MCT1 (BT-20 cell line) activity by monitoring the intracellular pH change that accompanies lactate/proton transport using the pH-sensitive fluorescent dye BCECF-AM.
(§5) Compound preparation: The compounds were serially diluted in 100% DMSO 1:3 for 8 pts and transferred (500 nl) to a 96-well plate by Echo.
(§6) Cell preparation: Cells were briefly rinsed with 10 ml of PBS solution to remove all traces of serum, trypsinized (0.05% Trypsin-EDTA) at 25° C. for 2-3 minutes and washed twice with Tyrode's solution. The cell viability and concentration were determined using Vi-Cell. Cells were resuspended in Tyrode's solution.
(§7) Cells were loaded with the pH sensitive dye BCECF-AM (5 uM final concentration from the 30 mM DMSO stock solution) at 37° C. for 30 minutes before being washed twice to remove excess dye and resuspended to 2 million/ml cells in Tyrode's solution. Cells were seeded into a 96-well plate (200,000 cells/well) directly onto the test compound or a reference compound for 10 minutes at 37° C. Following incubation with test compounds, 25 ul of 30 mM Sodium-L-lactate was added. This addition was performed on the FlexStation III as a part of a real-time kinetic protocol. The ratio of cellular fluorescence at 535 nm after excitation at 490 nm/440 nm was measured over time for baseline (pre-lactate addition) and post-lactate addition for 60 sec with or without compounds present. Inhibitory concentration response curves were generated for compounds and their IC50 values calculated.

MCT1 = target: T2, MCT1 (Homo sapiens, UniProt P53985); test: MCT1 transport assay (L-lactate influx, BCECF-AM intracellular pH); assay type: cell-based; conditions: BT-20 cells expressing exclusively MCT1
T2 construct: BT-20 cells—a triple negative human breast cancer cell line expressing exclusively MCT1 (confirmed by Western blotting); host or cells: BT-20
T2 sequence (P53985 1-500): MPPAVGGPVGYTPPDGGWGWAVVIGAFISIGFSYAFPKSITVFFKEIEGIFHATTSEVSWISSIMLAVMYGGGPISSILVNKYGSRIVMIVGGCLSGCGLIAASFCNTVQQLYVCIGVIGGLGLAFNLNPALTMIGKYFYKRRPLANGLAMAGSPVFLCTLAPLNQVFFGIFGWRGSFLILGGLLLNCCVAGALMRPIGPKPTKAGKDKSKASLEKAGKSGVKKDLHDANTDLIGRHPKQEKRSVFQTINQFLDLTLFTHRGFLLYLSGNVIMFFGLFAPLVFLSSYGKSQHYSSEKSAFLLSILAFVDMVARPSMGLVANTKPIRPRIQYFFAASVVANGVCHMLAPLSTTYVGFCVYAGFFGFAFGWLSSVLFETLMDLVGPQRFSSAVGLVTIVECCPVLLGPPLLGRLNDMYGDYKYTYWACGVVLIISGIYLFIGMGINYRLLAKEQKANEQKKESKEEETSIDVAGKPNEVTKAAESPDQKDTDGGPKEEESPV
T2 sequence (P35613 140-385 partner limits assumed): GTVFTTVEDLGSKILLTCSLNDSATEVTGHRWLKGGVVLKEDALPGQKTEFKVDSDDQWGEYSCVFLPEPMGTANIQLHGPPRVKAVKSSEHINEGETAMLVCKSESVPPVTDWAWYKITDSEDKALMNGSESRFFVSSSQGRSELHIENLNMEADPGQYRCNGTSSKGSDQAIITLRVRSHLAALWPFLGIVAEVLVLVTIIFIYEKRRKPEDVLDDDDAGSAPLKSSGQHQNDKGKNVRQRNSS
Source text: The following in vitro MCT4 and MCT1 transport assays were used to measure the effect of the compounds on L-lactate influx into two different cell lines: • a) MDA-MB-231 cells—a triple negative human breast cancer cell line expressing exclusively MCT4 (confirmed by Western blotting) was used for the MCT4 transport assay, • b) BT-20 cells—a triple negative human breast cancer cell line expressing exclusively MCT1 (confirmed by Western blotting) was used for the
as §1, §2
BT-20 (ATCC); Media: EMEM+10% FBS+1% PS
as §3, §4, §5, §6, §7

IC50 (MCT4) | IC50 (MCT1) | SMILES
100 to 499 nM | > 1000 nM | Cc1nc2nc(C)c(O[C@@H]3CCN(c4cnc(C56CC(C(=O)N7CCOCC7)(C5)C6)nc4)C3)c(C)n2n1 [Compound 26, (R)-morpholino(3-(5-(3-((2,5,7-trimethyl-[1,2,4]triazolo[1,5-a]pyrimidin-6-yl)oxy)pyrrolidin-1-yl)pyrimidin-2-yl)bicyclo[1.1.1]pentan-1-yl)methanone]
< 100 nM | > 1000 nM | COC1CN(C(=O)c2ccc(-c3ccc(N4CC[C@@H](Oc5c(C)nc6nc(C)nn6c5C)C4)cc3)nn2)C1 [Compound 14, (R)-(3-methoxyazetidin-1-yl)(6-(4-(3-((2,5,7-trimethyl-[1,2,4]triazolo[1,5-a]pyrimidin-6-yl)oxy)pyrrolidin-1-yl)phenyl)pyridazin-3-yl)methanone]
< 100 nM | > 1000 nM | COC1CN(C(=O)[C@H]2CC[C@H](c3ccc(N4CC[C@@H](Oc5c(C)nc6nc(C)nn6c5C)C4)cc3)CC2)C1 [Compound 34, (3-methoxyazetidin-1-yl)((1R,4r)-4-(4-((R)-3-((2,5,7-trimethyl-[1,2,4]triazolo[1,5-a]pyrimidin-6-yl)oxy)pyrrolidin-1-yl)phenyl)cyclohexyl)methanone]
< 100 nM | > 1000 nM | Cc1nc2nc(C)c(O[C@@H]3CCN(c4cnc(C56CC(CN7CCOCC7)(C5)C6)nc4)C3)c(C)n2n1 [Compound 23, (R)-4-((3-(5-(3-((2,5,7-trimethyl-[1,2,4]triazolo[1,5-a]pyrimidin-6-yl)oxy)pyrrolidin-1-yl)pyrimidin-2-yl)bicyclo[1.1.1]pentan-1-yl)methyl)morpholine]
> 1000 nM | > 1000 nM | Cc1nc2nc(C)c(O[C@@H]3CCN(c4cnc(C56CC(C(=O)N7CC8(COC8)C7)(C5)C6)nc4)C3)c(C)n2n1 [Compound 24, (R)-(2-oxa-6-azaspiro[3.3]heptan-6-yl)(3-(5-(3-((2,5,7-trimethyl-[1,2,4]triazolo[1,5-a]pyrimidin-6-yl)oxy)pyrrolidin-1-yl)pyrimidin-2-yl)bicyclo[1.1.1]pentan-1-yl)methanone]
< 100 nM | > 1000 nM | Cc1nc2nc(C)c(O[C@@H]3CCN(c4ccc(-c5ccc(CN6CC(N(C)C)C6)nn5)cc4)C3)c(C)n2n1 [Compound 9, (R)-N,N-dimethyl-1-((6-(4-(3-((2,5,7-trimethyl-[1,2,4]triazolo[1,5-a]pyrimidin-6-yl)oxy)pyrrolidin-1-yl)phenyl)pyridazin-3-yl)methyl)azetidin-3-amine]
< 100 nM | > 1000 nM | Cc1nc2nc(C)c(O[C@@H]3CCN(c4ccc(-c5ccc(C(=O)N6CC(C(=O)N(C)C)C6)nn5)cc4)C3)c(C)n2n1 [Compound 18, (R)-N,N-dimethyl-1-(6-(4-(3-((2,5,7-trimethyl-[1,2,4]triazolo[1,5-a]pyrimidin-6-yl)oxy)pyrrolidin-1-yl)phenyl)pyridazine-3-carbonyl)azetidine-3-carboxamide]
< 100 nM | > 1000 nM | Cc1nc2nc(C)c(O[C@@H]3CCN(c4ccc(-c5ccc(C(=O)N6CC(S(C)(=O)=O)C6)nn5)cc4)C3)c(C)n2n1 [Compound 16, (R)-(3-(methylsulfonyl)azetidin-1-yl)(6-(4-(3-((2,5,7-trimethyl-[1,2,4]triazolo[1,5-a]pyrimidin-6-yl)oxy)pyrrolidin-1-yl)phenyl)pyridazin-3-yl)methanone]
< 100 nM | > 1000 nM | Cc1nc2nc(C)c(O[C@@H]3CCN(c4ccc(-c5ccc(C(=O)N6CC(N(C)C)C6)nn5)cc4)C3)c(C)n2n1 [Compound 15, (R)-(3-(dimethylamino)azetidin-1-yl)(6-(4-(3-((2,5,7-trimethyl-[1,2,4]triazolo[1,5-a]pyrimidin-6-yl)oxy)pyrrolidin-1-yl)phenyl)pyridazin-3-yl)methanone]
> 1000 nM | > 1000 nM | Cc1nc2nc(C)c(C)n2c(C)c1O[C@@H]1CCN(c2ccc(-c3ccc(CN4CCOCC4)nn3)cc2)C1 [Compound 3, (R)-4-((6-(4-(3-((2,3,5,7-tetramethylimidazo[1,2-a]pyrimidin-6-yl)oxy)pyrrolidin-1-yl)phenyl)pyridazin-3-yl)methyl)morpholine]
< 100 nM | > 1000 nM | Cc1nc2nc(C)c(O[C@@H]3CCN(c4cnc(C56CCC(CN7CCOCC7)(CC5)CC6)nc4)C3)c(C)n2n1 [Compound 6, (R)-4-((4-(5-(3-((2,5,7-trimethyl-[1,2,4]triazolo[1,5-a]pyrimidin-6-yl)oxy)pyrrolidin-1-yl)pyrimidin-2-yl)bicyclo[2.2.2]octan-1-yl)methyl)morpholine]
< 100 nM | > 1000 nM | Cc1nc2nc(C)c(O[C@@H]3CCN(c4ccc(-c5ccc(CN6CC7(COC7)C6)nn5)cc4)C3)c(C)n2n1 [Compound 7, (R)-6-((6-(4-(3-((2,5,7-trimethyl-[1,2,4]triazolo[1,5-a]pyrimidin-6-yl)oxy)pyrrolidin-1-yl)phenyl)pyridazin-3-yl)methyl)-2-oxa-6-azaspiro[3.3]heptane]
< 100 nM | > 1000 nM | Cc1nc2nc(C)c(O[C@@H]3CCN(c4ccc(-c5ccc(C(=O)N6CCOCC6)nn5)cc4)C3)c(C)n2n1 [Compound 19, (R)-morpholino(6-(4-(3-((2,5,7-trimethyl-[1,2,4]triazolo[1,5-a]pyrimidin-6-yl)oxy)pyrrolidin-1-yl)phenyl)pyridazin-3-yl)methanone]
< 100 nM | > 1000 nM | Cc1cc2nc(C)c(O[C@@H]3CCN(c4ccc(-c5ccc(CN6CCOCC6)nn5)cc4)C3)c(C)n2n1 [Compound 4, (R)-4-((6-(4-(3-((2,5,7-trimethylpyrazolo[1,5-a]pyrimidin-6-yl)oxy)pyrrolidin-1-yl)phenyl)pyridazin-3-yl)methyl)morpholine]
 | > 1000 nM | Cc1nc2nc(C)c(O[C@@H]3CCN(c4ccc(-c5ccc(CN6CCOCC6)nn5)cc4)C3)c(C)n2n1 [Compound 1, (R)-4-((6-(4-(3-((2,5,7-trimethyl-[1,2,4]triazolo[1,5-a]pyrimidin-6-yl)oxy)pyrrolidin-1-yl)phenyl)pyridazin-3-yl)methyl)morpholine]
